Here are results for two compounds from patent publication US20050222122A1, “Statin therapy for enhancing cognitive maintenance” (priority 2002, published 2005).

One test has as its system serum β-amyloid. To be noted: patients with high low-density lipoprotein cholesterol; lovastatin 40 or 60 mg; cited from earlier work.
Test [1] deals with patients with Alzheimer's disease. Nature of the test: Change in ADAS-cog/11 in combined double-blind, placebo-controlled galantamine clinical trials (5 to 6 months). It is filed as in vivo, human. As to conditions: combined trial data, galantamine 24 mg daily, controls for study and AD severity. As to the method: The objective was to evaluate the effect of statins on cognitive maintenance in patients with Alzheimer's disease during 5- and 6-month randomized clinical trials of galantamine.
Data were combined from 3 double-blind, placebo-controlled clinical trials limited to patients treated with galantamine 24 mg daily or placebo
Patients were categorized based on galantamine status and any statin use.
Changes in the Alzheimer's Disease Assessment Scale-cognitive subscale with standard 11 items (ADAS-cog/11) using last observation carried forward (LOCF) were assessed
Comparisons between patient subgroups were made controlling for relevant confounding factors.

With `CC[C@H](C)C(=O)O[C@H]1C[C@@H](C)C=C2C=C[C@H](C)[C@H](CC[C@@H]3C[C@@H](O)CC(=O)O3)[C@H]21` [lovastatin], the “serum β-amyloid” value in the test with serum β-amyloid is “decreased serum β-amyloid”.
On to `COc1ccc2c3c1O[C@H]1C[C@@H](O)C=C[C@@]31CCN(C)C2` [GAL 24 only, (4aS,6R,8aS)-4a, 5,9,10,11,12-hexahydro-3-methoxy-1 1-methyl-6H-benzofuro[3a,3,2-ef][2]benzazepin-6-ol], for which the “ADAS-Cog change score, LS Means (SE)” value in test [1] (Intent-to-treat analysis (LOCF)) was −0.88 (0.25); in test [1] (Intent-to-treat analysis (LOCF), listed as GAL-only) it was −0.88; in test [1] (Observed cases), −0.61 (0.28).
